Results on 1 molecule are retold here after patent US7439240B2, “Purine-or pyrrolol[2,3-d]pyrimidine-2-carbonitiles for treating diseases associated with cysteine protease activity” (AstraZeneca AB, priority 2002, dated 2008).

Usually melting point stands for the temperature, or range, at which the solid turns liquid.

On to `CCn1ccc2c(Nc3ccc(Cl)cc3)nc(C#N)nc21` [Example 27, 4-[(4-Chlorophenyl)amino]-7-ethyl-7H-pyrrolo[2,3-d]pyrimidine-2-carbonitrile], for which the melting point was determined as 183 °C.
